Results on 14 molecules are retold here after patent US12552753B2, “Methods and compositions for targeting Tregs using CCR8 inhibitors” (Nanjing Immunophage Biomedical Co., Ltd., priority 2020, dated 2026).

Counter-ions that a name gives are not always drawn.

For the test, the target named is CCR8 (Homo sapiens, UniProt P51685). Briefly: Tango assay (Tango-CCR8-Gal4-CHO-K1 cells, CCL1-stimulated, ONE-Glo luminescence). The following applies: Tango Assay IC50, Inhibition of CCR8 Tango cell in vitro.
Sequence of CCR8 (P51685 whole entry, the tested form may be a part): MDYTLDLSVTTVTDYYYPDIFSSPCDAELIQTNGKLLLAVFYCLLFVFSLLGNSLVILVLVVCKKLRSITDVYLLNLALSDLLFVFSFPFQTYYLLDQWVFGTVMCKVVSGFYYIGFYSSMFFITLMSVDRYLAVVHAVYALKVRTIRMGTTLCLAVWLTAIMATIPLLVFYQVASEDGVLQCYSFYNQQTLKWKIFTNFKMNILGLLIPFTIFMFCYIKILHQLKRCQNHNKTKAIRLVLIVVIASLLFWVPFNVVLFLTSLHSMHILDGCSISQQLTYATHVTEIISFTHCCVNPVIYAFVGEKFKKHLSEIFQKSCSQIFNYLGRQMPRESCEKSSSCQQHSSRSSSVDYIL

In turn, `Cc1cc(S(=O)(=O)N[C@H](C)C2CCNCC2)ccc1NC(=O)c1ccccc1C(F)(F)F` [Compound 249A, (R)-N-(2-methyl-4-(N-(1-(piperidin-4-yl)ethyl)sulfamoyl)phenyl)-2-(trifluoromethyl) benzamide hydrochloride] registered an IC50 of 12 nM. Then `Cc1cc(S(=O)(=O)N[C@H](C)C2CCNCC2)ccc1NC(=O)c1ccsc1C` [Compound 250A, (R)-2-methyl-N-(2-methyl-4-(N-(1-(piperidin-4-yl)ethyl)sulfamoyl)phenyl)thiophene-3-carboxamide hydrochloride], with 105 nM; and `Cc1cc(S(=O)(=O)N[C@H](C)C2CCNCC2)ccc1NC(=O)c1ccncc1C` [Compound 251A, (R)-3-methyl-N-(2-methyl-4-(N-(1-(piperidin-4-yl)ethyl)sulfamoyl)phenyl)isonicotinamide hydrochloride], with over 100000 nM. In turn, `Cc1cc(S(=O)(=O)N[C@H](C)C2CCNCC2)ccc1NC(=O)c1cncs1` [Compound 252A, (R)-N-(2-methyl-4-(N-(1-(piperidin-4-yl)ethyl)sulfamoyl)phenyl)thiazole-5-carboxamide hydrochloride] came in with an IC50 of over 100000 nM. For `Cc1cc(S(=O)(=O)N[C@H](C)C2CCNCC2)ccc1NC(=O)c1nccs1` [Compound 253A, (R)-N-(2-methyl-4-(N-(1-(piperidin-4-yl)ethyl)sulfamoyl)phenyl)thiazole-2-carboxamide hydrochloride] the value was 851 nM; for `Cc1cc(S(=O)(=O)N[C@H](C)C2CCNCC2)ccc1NC(=O)C1CCC1` [Compound 254, (R)-N-(2-methyl-4-(N-(1-(piperidin-4-yl)ethyl)sulfamoyl)phenyl) cyclobutanecarboxamide], over 100000 nM. For `Cc1cc(S(=O)(=O)NC(C)C2CCNCC2)ccc1NC(=O)c1ccccc1Cl` (centres unmarked) [Compound 255, 2-chloro-N-(2-methyl-4-(N-(1-(piperidin-4-yl)ethyl)sulfamoyl)phenyl)benzamide] the value was 30 nM; for `Cc1cc(S(=O)(=O)N[C@H](C)C2CCNCC2)ccc1NC(=O)c1ccc(Cl)cc1C` [Compound 256A, (R)-4-chloro-2-methyl-N-(2-methyl-4-(N-(1-(piperidin-4-yl)ethyl)sulfamoyl)phenyl)benzamide hydrochloride], 2 nM. Consider `Cc1ccccc1C(=O)Nc1cc(C)c(S(=O)(=O)N[C@H](C)C2CCNCC2)cc1F` [Compound 257, (R)-N-(2-fluoro-5-methyl-4-(N-(1-(piperidin-4-yl)ethyl)sulfamoyl)phenyl)-2-methylbenzamide hydrochloride], for which the IC50 was 15 nM. Consider `Cc1cc(S(=O)(=O)N[C@H](C)C2CCNCC2)ccc1NC(=O)c1ccc(F)cc1C` [Compound 258A, (R)-4-fluoro-2-methyl-N-(2-methyl-4-(N-(1-(piperidin-4-yl)ethyl)sulfamoyl)phenyl)benzamide hydrochloride], for which the IC50 was over 100000 nM. `Cc1ccc(C(=O)Nc2ccc(S(=O)(=O)N[C@H](C)C3CCNCC3)cc2C)c(C)c1` [Compound 259A, (R)-2,4-dimethyl-N-(2-methyl-4-(N-(1-(piperidin-4-yl)ethyl)sulfamoyl)phenyl)benzamide hydrochloride]: the IC50 came to 3 nM. The molecule `Cc1cc(S(=O)(=O)N[C@H](C)C2CCN(C)CC2)c(F)cc1NC(=O)c1ccccc1C` [Compound 262, (R)-N-(5-fluoro-2-methyl-4-(N-(1-(1-methylpiperidin-4-yl)ethyl)sulfamoyl)phenyl)-2-methylbenzamide] showed an IC50 of 5 nM. Compared with the last molecule, the IC50 is about 1.7-fold higher.

`Cc1cc(S(=O)(=O)N[C@@H](C)C2CCN(C)CC2)c(F)cc1NC(=O)c1ccccc1C` [Compound 262A, (S)-N-(5-fluoro-2-methyl-4-(N-(1-(1-methylpiperidin-4-yl)ethyl)sulfamoyl)phenyl)-2-methylbenzamide] displayed an IC50 of over 100000 nM. Then `Cc1ccccc1C(=O)Nc1cc(F)c(S(=O)(=O)N[C@H](C)C2CCN(C)CC2)cc1Cl` [Compound 263, (R)-N-(2-chloro-5-fluoro-4-(N-(1-(1-methylpiperidin-4-yl)ethyl)sulfamoyl)phenyl)-2-methylbenzamide], with 2 nM.

One may read the IC50 as the concentration needed to halve the response being measured. A high value points to weaker potency.
